Experimental data reported in patent US10479780B2, “Aminopyrazole derivatives” (Chugai Seiyaku Kabushiki Kaisha, priority 2015, dated 2019).

Key:
Assay type in all cases: biochemical
human Src enzyme = molecular target: T1, human Src enzyme (Homo sapiens, UniProt P12931); assay: Src enzyme inhibitory activity (time-resolved fluorometry, biotinylated peptide phosphorylation); conditions: biotinylated peptide phosphorylation, read-out: SRC_IC50
T1 construct: purchased Carna Biosciences, Inc. 08-173
Procedure, shortened: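 Compounds were tested for blocking tyrosine phosphorylation of a biotinylated peptide substrate by recombinant human Src. Phosphorylated product was quantified by time-resolved fluorometry using europium cryptate and XL665 conjugates, and IC50 was calculated against the compound-free control.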

human Lck enzyme = molecular target: T2, human Lck enzyme (Homo sapiens, UniProt P06239); assay: Lck enzyme inhibitory activity (time-resolved fluorometry, biotinylated peptide phosphorylation); conditions: biotinylated peptide phosphorylation, read-out: LCK_IC50
T2 construct: purchased Carna Biosciences, Inc. 08-170
Procedure, shortened: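 Readout pairs a europium cryptate-labelled anti-phosphotyrosine antibody with XL665-streptavidin, measured by time-resolved fluorescence. IC50 derived from percent inhibition against untreated controls.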

human Yes1 enzyme = molecular target: T3, human Yes1 enzyme (Homo sapiens, UniProt P07947); assay: Yes1 enzyme inhibitory activity (time-resolved fluorometry, biotinylated peptide phosphorylation); conditions: biotinylated peptide phosphorylation, read-out: YES_IC50
T3 construct: made in house
Procedure, shortened: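 Inhibition was expressed against a compound-free control to give IC50, using TR-FRET read-out (Eu-cryptate anti-pTyr antibody, streptavidin-XL665).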

T1 sequence (P12931 whole entry): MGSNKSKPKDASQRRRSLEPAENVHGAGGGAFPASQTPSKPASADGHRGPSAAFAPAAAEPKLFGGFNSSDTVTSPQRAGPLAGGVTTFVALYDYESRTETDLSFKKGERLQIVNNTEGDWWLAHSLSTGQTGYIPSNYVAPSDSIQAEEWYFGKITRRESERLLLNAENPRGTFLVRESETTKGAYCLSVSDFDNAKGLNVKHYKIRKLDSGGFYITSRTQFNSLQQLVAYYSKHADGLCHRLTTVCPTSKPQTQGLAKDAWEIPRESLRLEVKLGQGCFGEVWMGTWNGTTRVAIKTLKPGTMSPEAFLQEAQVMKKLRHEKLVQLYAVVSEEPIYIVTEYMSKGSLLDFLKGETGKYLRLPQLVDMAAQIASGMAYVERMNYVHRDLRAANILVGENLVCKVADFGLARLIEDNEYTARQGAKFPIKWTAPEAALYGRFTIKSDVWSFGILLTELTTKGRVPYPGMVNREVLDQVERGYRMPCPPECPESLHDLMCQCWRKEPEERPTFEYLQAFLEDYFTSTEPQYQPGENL
T2 sequence (P06239 whole entry): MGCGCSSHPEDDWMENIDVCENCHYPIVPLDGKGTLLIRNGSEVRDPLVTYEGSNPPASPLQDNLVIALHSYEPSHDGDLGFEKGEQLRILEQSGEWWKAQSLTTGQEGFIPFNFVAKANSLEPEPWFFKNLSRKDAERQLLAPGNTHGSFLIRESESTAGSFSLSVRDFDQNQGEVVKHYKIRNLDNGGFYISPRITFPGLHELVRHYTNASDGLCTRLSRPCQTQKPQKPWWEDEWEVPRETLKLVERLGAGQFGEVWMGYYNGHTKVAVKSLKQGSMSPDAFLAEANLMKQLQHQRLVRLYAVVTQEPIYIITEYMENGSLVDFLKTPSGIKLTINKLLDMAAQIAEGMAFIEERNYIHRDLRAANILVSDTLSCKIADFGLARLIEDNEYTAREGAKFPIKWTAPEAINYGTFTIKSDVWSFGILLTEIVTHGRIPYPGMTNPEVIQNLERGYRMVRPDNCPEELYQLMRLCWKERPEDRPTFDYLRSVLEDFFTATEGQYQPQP
T3 sequence (P07947 whole entry): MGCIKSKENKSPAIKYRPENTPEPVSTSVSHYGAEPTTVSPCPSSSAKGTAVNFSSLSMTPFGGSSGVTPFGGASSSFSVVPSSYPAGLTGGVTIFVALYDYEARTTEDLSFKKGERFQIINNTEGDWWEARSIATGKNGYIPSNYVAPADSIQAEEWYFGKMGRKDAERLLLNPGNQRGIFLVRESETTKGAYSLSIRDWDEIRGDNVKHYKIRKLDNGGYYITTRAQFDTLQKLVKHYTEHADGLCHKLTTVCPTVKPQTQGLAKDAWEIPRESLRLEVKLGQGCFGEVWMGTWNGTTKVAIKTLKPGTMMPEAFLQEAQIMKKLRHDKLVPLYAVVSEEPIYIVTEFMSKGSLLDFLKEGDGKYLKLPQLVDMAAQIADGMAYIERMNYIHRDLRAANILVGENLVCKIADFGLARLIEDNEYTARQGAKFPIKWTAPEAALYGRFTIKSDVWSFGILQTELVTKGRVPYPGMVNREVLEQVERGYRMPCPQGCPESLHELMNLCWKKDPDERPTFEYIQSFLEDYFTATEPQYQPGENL

SMILES | IC50 (human Src enzyme) | IC50 (human Lck enzyme) | IC50 (human Yes1 enzyme)
Cc1cc(Oc2ccccc2F)ccc1-n1ncc(C(=O)c2cc3cc(OC(F)F)c(N4C(=O)C(C)(C)NC4=S)cc3[nH]2)c1N [Example 4-23-039, 3-[2-[5-amino-1-[4-(2-fluorophenoxy)-2-methylphenyl]pyrazole-4-carbonyl]-5-(difluoromethoxy)-1H-indol-6-yl]-5,5-dimethyl-2-sulfanylideneimidazolidin-4-one] | 60 nM | 16 nM | 0.81 nM
Cc1cc(Oc2ccccc2F)ccc1-n1ncc(C(=O)c2cc3cc(OC(F)F)c(NS(=O)(=O)C4CC4)cc3[nH]2)c1N [Example 4-24-001, N-[2-[5-amino-1-[4-(2-fluorophenoxy)-2-methylphenyl]pyrazole-4-carbonyl]-5-(difluoromethoxy)-1H-indol-6-yl]cyclopropanesulfonamide] | 110 nM | 36 nM | 3.6 nM
Cc1cc(Oc2ccccc2F)ccc1-n1ncc(C(=O)c2cc3cc(OC(F)F)c(NS(C)(=O)=O)cc3[nH]2)c1N [Example 4-24-002, N-[2-[5-amino-1-[4-(2-fluorophenoxy)-2-methylphenyl]pyrazole-4-carbonyl]-5-(difluoromethoxy)-1H-indol-6-yl]methanesulfonamide] | 35 nM | 10 nM | 1.6 nM
Cc1cc(Oc2ccccc2F)ccc1-n1ncc(C(=O)c2cc3cc(OC(F)F)c(NS(=O)(=O)CCCF)cc3[nH]2)c1N [Example 4-24-003, N-[2-[5-amino-1-[4-(2-fluorophenoxy)-2-methylphenyl]pyrazole-4-carbonyl]-5-(difluoromethoxy)-1H-indol-6-yl]-3-fluoropropane-1-sulfonamide] | 55 nM | 25 nM | 2.7 nM
Cc1cc(Oc2ccccc2F)ccc1-n1ncc(C(=O)c2cc3cc(OC(F)F)c(NS(=O)(=O)CCC(F)F)cc3[nH]2)c1N [Example 4-24-004, N-[2-[5-amino-1-[4-(2-fluorophenoxy)-2-methylphenyl]pyrazole-4-carbonyl]-5-(difluoromethoxy)-1H-indol-6-yl]-3,3-difluoropropane-1-sulfonamide] | 41 nM | 17 nM | 3.1 nM
Cc1cc(Oc2ccccc2F)cc(F)c1-n1ncc(C(=O)c2cc3cc(OC(F)F)c(NS(=O)(=O)C4CC4)cc3[nH]2)c1N [Example 4-24-005, N-[2-[5-amino-1-[2-fluoro-4-(2-fluorophenoxy)-6-methylphenyl]pyrazole-4-carbonyl]-5-(difluoromethoxy)-1H-indol-6-yl]cyclopropanesulfonamide] | 240 nM | 47 nM | 4.7 nM
Cc1cc(Oc2ccccc2F)cc(F)c1-n1ncc(C(=O)c2cc3cc(OC(F)F)c(NS(=O)(=O)CCCF)cc3[nH]2)c1N [Example 4-24-006, N-[2-[5-amino-1-[2-fluoro-4-(2-fluorophenoxy)-6-methylphenyl]pyrazole-4-carbonyl]-5-(difluoromethoxy)-1H-indol-6-yl]-3-fluoropropane-1-sulfonamide] | 200 nM | 51 nM | 4.5 nM
Cc1cc(Oc2ccccc2F)ncc1-n1ncc(C(=O)c2cc3cc(OC(F)F)c(NS(=O)(=O)C4CC4)cc3[nH]2)c1N [Example 4-24-007, N-[2-[5-amino-1-[6-(2-fluorophenoxy)-4-methylpyridin-3-yl]pyrazole-4-carbonyl]-5-(difluoromethoxy)-1H-indol-6-yl]cyclopropanesulfonamide] | 230 nM | 61 nM | 4 nM
Cc1cc(Oc2ccccc2F)ncc1-n1ncc(C(=O)c2cc3cc(OC(F)F)c(NS(C)(=O)=O)cc3[nH]2)c1N [Example 4-24-008, N-[2-[5-amino-1-[6-(2-fluorophenoxy)-4-methylpyridin-3-yl]pyrazole-4-carbonyl]-5-(difluoromethoxy)-1H-indol-6-yl]methanesulfonamide] | 99 nM | 19 nM | 2.1 nM
Cc1cc(Oc2ccccc2F)ncc1-n1ncc(C(=O)c2cc3cc(OC(F)F)c(NS(=O)(=O)CCCF)cc3[nH]2)c1N [Example 4-24-009, N-[2-[5-amino-1-[6-(2-fluorophenoxy)-4-methylpyridin-3-yl]pyrazole-4-carbonyl]-5-(difluoromethoxy)-1H-indol-6-yl]-3-fluoropropane-1-sulfonamide] | 120 nM | 39 nM | 3.6 nM
Cc1cc(Oc2c(F)cccc2F)ncc1-n1ncc(C(=O)c2cc3cc(OC(F)F)c(NS(=O)(=O)C4CC4)cc3[nH]2)c1N [Example 4-24-010, N-[2-[5-amino-1-[6-(2,6-difluorophenoxy)-4-methylpyridin-3-yl]pyrazole-4-carbonyl]-5-(difluoromethoxy)-1H-indol-6-yl]cyclopropanesulfonamide] | 150 nM | 36 nM | 4.3 nM
Cc1cc(Oc2c(F)cccc2F)ncc1-n1ncc(C(=O)c2cc3cc(OC(F)F)c(NS(C)(=O)=O)cc3[nH]2)c1N [Example 4-24-011, N-[2-[5-amino-1-[6-(2,6-difluorophenoxy)-4-methylpyridin-3-yl]pyrazole-4-carbonyl]-5-(difluoromethoxy)-1H-indol-6-yl]methanesulfonamide] | 64 nM | 13 nM | 2.3 nM
Cc1cc(Oc2c(F)cccc2F)ncc1-n1ncc(C(=O)c2cc3cc(OC(F)F)c(NS(=O)(=O)CCCF)cc3[nH]2)c1N [Example 4-24-012, N-[2-[5-amino-1-[6-(2,6-difluorophenoxy)-4-methylpyridin-3-yl]pyrazole-4-carbonyl]-5-(difluoromethoxy)-1H-indol-6-yl]-3-fluoropropane-1-sulfonamide] | 100 nM | 28 nM | 4 nM
Cc1cc(Oc2ccccc2F)ccc1-n1ncc(C(=O)c2cc3cc(N4CCOCC4)c(NS(C)(=O)=O)cc3[nH]2)c1N [Example 4-24-013, N-[2-[5-amino-1-[4-(2-fluorophenoxy)-2-methylphenyl]pyrazole-4-carbonyl]-5-morpholin-4-yl-1H-indol-6-yl]methanesulfonamide] | 40 nM | 12 nM | 1.6 nM
Cc1cc(Oc2ccccc2F)ncc1-n1ncc(C(=O)c2cc3cc(N4CCOCC4)c(NS(=O)(=O)C4CC4)cc3[nH]2)c1N [Example 4-24-014, N-[2-[5-amino-1-[6-(2-fluorophenoxy)-4-methylpyridin-3-yl]pyrazole-4-carbonyl]-5-morpholin-4-yl-1H-indol-6-yl]cyclopropanesulfonamide] | 360 nM | 97 nM | 6.6 nM
Cc1cc(Oc2ccccc2F)ncc1-n1ncc(C(=O)c2cc3cc(N4CCOCC4)c(NS(C)(=O)=O)cc3[nH]2)c1N [Example 4-24-015, N-[2-[5-amino-1-[6-(2-fluorophenoxy)-4-methylpyridin-3-yl]pyrazole-4-carbonyl]-5-morpholin-4-yl-1H-indol-6-yl]methanesulfonamide] | 77 nM | 16 nM | 1.3 nM
Cc1cc(Oc2ccccc2F)ncc1-n1ncc(C(=O)c2cc3cc(N4CCOCC4)c(NS(=O)(=O)CCCF)cc3[nH]2)c1N [Example 4-24-016, N-[2-[5-amino-1-[6-(2-fluorophenoxy)-4-methylpyridin-3-yl]pyrazole-4-carbonyl]-5-morpholin-4-yl-1H-indol-6-yl]-3-fluoropropane-1-sulfonamide] | 78 nM | 32 nM | 0.87 nM
Cc1cc(Oc2c(F)cccc2F)ncc1-n1ncc(C(=O)c2cc3cc(N4CCOCC4)c(NS(=O)(=O)C4CC4)cc3[nH]2)c1N [Example 4-24-017, N-[2-[5-amino-1-[6-(2,6-difluorophenoxy)-4-methylpyridin-3-yl]pyrazole-4-carbonyl]-5-morpholin-4-yl-1H-indol-6-yl]cyclopropanesulfonamide] | 170 nM | 65 nM | 4.1 nM
Cc1cc(Oc2c(F)cccc2F)ncc1-n1ncc(C(=O)c2cc3cc(N4CCOCC4)c(NS(C)(=O)=O)cc3[nH]2)c1N [Example 4-24-018, N-[2-[5-amino-1-[6-(2,6-difluorophenoxy)-4-methylpyridin-3-yl]pyrazole-4-carbonyl]-5-morpholin-4-yl-1H-indol-6-yl]methanesulfonamide] | 91 nM | 27 nM | 2.6 nM
Cc1cc(Oc2c(F)cccc2F)ncc1-n1ncc(C(=O)c2cc3cc(N4CCOCC4)c(NS(=O)(=O)CCCF)cc3[nH]2)c1N [Example 4-24-019, N-[2-[5-amino-1-[6-(2,6-difluorophenoxy)-4-methylpyridin-3-yl]pyrazole-4-carbonyl]-5-morpholin-4-yl-1H-indol-6-yl]-3-fluoropropane-1-sulfonamide] | 140 nM | 62 nM | 3.9 nM
Cc1cc(Oc2ccccc2F)ccc1-n1ncc(C(=O)c2cc3cc(OCC(F)F)c(NS(=O)(=O)C4CC4)cc3[nH]2)c1N [Example 4-24-020, N-[2-[5-amino-1-[4-(2-fluorophenoxy)-2-methylphenyl]pyrazole-4-carbonyl]-5-(2,2-difluoroethoxy)-1H-indol-6-yl]cyclopropanesulfonamide] | 54 nM | 22 nM | 3.1 nM
Cc1cc(Oc2ccccc2F)ccc1-n1ncc(C(=O)c2cc3cc(OCC(F)F)c(NS(C)(=O)=O)cc3[nH]2)c1N [Example 4-24-021, N-[2-[5-amino-1-[4-(2-fluorophenoxy)-2-methylphenyl]pyrazole-4-carbonyl]-5-(2,2-difluoroethoxy)-1H-indol-6-yl]methanesulfonamide] | 22 nM | 9.7 nM | 1.7 nM
